Test results published in PMC9059125 (Journal of Medicinal Chemistry, 2022).
Like-named read-outs stand apart in the source and are kept apart here. *1 amine or outer side, *2 acyl side, *3 side chain or, on linkers, in order; H or OH if unused. Where a SMILES comes first, the peptide text is derived from it. Bridges are numbered along the chain shown (N, C = ends). X1 = O=C(CCC[*:2])[*:1]

Assays:
[1] = biological target: T1, human oxytocin receptor (OTR) (Homo sapiens, UniProt P30559); assay: NIMH PDSP FLIPR-TETRA Ca2+-mobilization assay; assay type: cell-based
T1 construct: NIMH PDSP (data provider)
T1 sequence (P30559 1-389): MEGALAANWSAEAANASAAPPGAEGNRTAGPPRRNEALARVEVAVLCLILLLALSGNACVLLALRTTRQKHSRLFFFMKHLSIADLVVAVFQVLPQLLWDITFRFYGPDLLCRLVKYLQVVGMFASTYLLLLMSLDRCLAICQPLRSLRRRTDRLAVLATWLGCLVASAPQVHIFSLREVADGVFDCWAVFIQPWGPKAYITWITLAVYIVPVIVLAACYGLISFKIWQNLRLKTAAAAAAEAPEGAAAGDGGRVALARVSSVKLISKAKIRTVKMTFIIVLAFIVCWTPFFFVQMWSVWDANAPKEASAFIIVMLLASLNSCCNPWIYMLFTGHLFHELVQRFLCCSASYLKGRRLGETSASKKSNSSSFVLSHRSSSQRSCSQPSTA

[2] = simulated gi fluid, pH 6.8
[3] = biological target: T1, human oxytocin receptor (OTR); details: cited from earlier work
[4] = simulated gi fluid, pH 1.2
[5] = simulated gi fluid; cited from earlier work
hOTR = biological target: T2, hOTR (Homo sapiens, UniProt P30559); assay: cell-based
T2 construct: expressed in transfected cells; host or cells: COS-1 cells (ATCC), transient transfection with FuGENE HD
T2 sequence (P30559 1-389): T1 sequence (P30559 1-389)

in vitro = details: pig, simulated gi fluid, pH 6.8

SMILES: CC[C@H](C)[C@@H]1NC(=O)[C@H](Cc2ccc(O)cc2)NC(=O)[C@@H](N)CSSC[C@@H](C(=O)N2CCC[C@H]2C(=O)N[C@@](C)(CC(C)C)C(=O)NCC(N)=O)NC(=O)[C@H](CC(N)=O)NC(=O)[C@H](CCC(N)=O)NC1=O [(Cα-Me)L^8OT]
- EC50 [1]: 3.8 ± 2.7 nM
- Emax ± SEM OTR [1]: 105 ± 11
- bioactivity at OTR compared to native OT [1]: equipotent to native OT
- t1/2 SIF ([2]; pig): 4.4 ± 0.3 h

SMILES: CC[C@H](C)[C@@H]1NC(=O)[C@H](Cc2ccc(O)cc2)NC(=O)[C@@H](N)CSSC[C@@H](C(=O)N2CCC[C@H]2C(=O)N[C@@H](CC(C)C)C(=O)N(C)CC(N)=O)NC(=O)[C@H](CC(N)=O)NC(=O)[C@H](CCC(N)=O)NC1=O [(Nα-Me)G^9OT]
- t1/2 SIF ([2]; pig): 2.9 ± 0.1 h
- reduced potency compared to native OT [3]: ~10 fold

SMILES: CC[C@H](C)[C@@H]1NC(=O)[C@H](Cc2ccc(O)cc2)NC(=O)[C@@H](N)CSSC[C@@H](C(=O)N2CCC[C@H]2C(=O)N[C@H](CC(=O)NCC(N)=O)CC(C)C)NC(=O)[C@H](CC(N)=O)NC(=O)[C@H](CCC(N)=O)NC1=O [(β^3-homo)L^8OT]
- t1/2 SIF ([2]; pig): 3.6 ± 0.1 h

SMILES: CC[C@H](C)[C@@H]1NC(=O)[C@H](Cc2ccc(OC)cc2)NC(=O)CCCSC[C@@H](C(=O)N2CCC[C@H]2C(=O)N[C@@H](CC(C)C)C(=O)NCC(N)=O)NC(=O)[C@H](CC(N)=O)NC(=O)[C@H](CCC(N)=O)NC1=O [Carbetocin, reference compound] (Y(Me)IQNCPLG-NH2; linker N-5 via X1)
- t1/2 SGF [4]: >24 h
- t1/2 SIF ([2]; pig): 0.217 ± 0.017 h

SMILES: NC(=O)CC[C@@H]1NC(=O)[C@H](Cc2ccccc2)NC(=O)[C@H](Cc2ccc(O)cc2)NC(=O)CCSSC[C@@H](C(=O)N2CCC[C@H]2C(=O)N[C@H](CCCN=C(N)N)C(=O)NCC(N)=O)NC(=O)[C@H](CC(N)=O)NC1=O [Desmopressin]
- reported t1/2 in SIF [5]: 0.5 h

SMILES: CC(C)C[C@@H]1NC(=O)[C@H](CCC(=O)O)NC(=O)[C@@H](NC(=O)[C@H](CCC(=O)O)NC(=O)[C@H](CC(=O)O)NC(=O)[C@H](N)CC(N)=O)CSSC[C@@H]2NC(=O)[C@H](C)NC(=O)[C@H](C(C)C)NC(=O)[C@H](CC(N)=O)NC(=O)[C@H](C(C)C)NC(=O)[C@H](CSSC[C@@H](C(=O)N[C@H](CC(C)C)C(=O)O)NC(=O)CNC(=O)[C@H]([C@@H](C)O)NC2=O)NC1=O [Dolcanatide, reference compound]
- t1/2 SGF [4]: >24 h
- t1/2 SIF [2]: >24 h

SMILES: CC[C@H](C)[C@@H]1NC(=O)[C@H](Cc2ccc(O)cc2)NC(=O)[C@@H](N)CSSC[C@@H](C(=O)N2CCC[C@H]2C(=O)N[C@@H](CC(C)C)C(=O)NNC(N)=O)NC(=O)[C@H](CC(N)=O)NC(=O)[C@H](CCC(N)=O)NC1=O [G^9(aza)OT]
- EC50 [1]: 2.24 ± 0.63 nM
- Emax ± SEM OTR [1]: 111 ± 6
- t1/2 SIF [2]: <0.05 h

SMILES: CC[C@H](C)[C@@H]1NC(=O)[C@H](Cc2ccc(O)cc2)NC(=O)[C@@H]2CSSC[C@@H]3NC(=O)[C@H](C(C)C)NC(=O)[C@@H]4CCCN4C(=O)[C@H](Cc4c[nH]c5ccccc45)NC(=O)[C@H](CO)NC(=O)[C@@H]4CSSC[C@H](NC(=O)[C@H]([C@@H](C)O)NC(=O)[C@H](CCC(=O)O)NC(=O)CNC(=O)[C@H](CSSC[C@H](NC(=O)[C@H](CC(N)=O)NC(=O)[C@H](CCC(N)=O)NC1=O)C(=O)N[C@@H]([C@@H](C)O)C(=O)N4)NC(=O)[C@H](C(C)C)NC(=O)[C@@H]1CCCN1C(=O)[C@H](CC(C)C)NC(=O)CNC(=O)[C@H](CC(N)=O)NC(=O)[C@H](CCCNC(=N)N)NC(=O)[C@H]([C@@H](C)O)NC3=O)C(=O)N[C@@H](C(C)C)C(=O)NCC(=O)NCC(=O)N[C@@H]([C@@H](C)O)C(=O)N2 [KB1(OT^[2-5])]
- EC50 (hOTR): > 10000 nM
- t1/2 SIF [2]: >24 h

SMILES: CC[C@H](C)[C@@H]1NC(=O)[C@H](Cc2ccc(O)cc2)NC(=O)[C@@H]2CSSC[C@@H]3NC(=O)[C@H](C(C)C)NC(=O)[C@@H]4CCCN4C(=O)[C@H](Cc4c[nH]c5ccccc45)NC(=O)[C@H](CO)NC(=O)[C@@H]4CSSC[C@H](NC(=O)[C@H]([C@@H](C)O)NC(=O)[C@H](CCC(=O)O)NC(=O)CNC(=O)[C@H](CSSC[C@H](NC(=O)[C@H](CC(N)=O)NC(=O)[C@H]([C@@H](C)O)NC1=O)C(=O)N[C@@H]([C@@H](C)O)C(=O)N4)NC(=O)[C@H](C(C)C)NC(=O)[C@@H]1CCCN1C(=O)[C@H](CC(C)C)NC(=O)CNC(=O)[C@H](CC(N)=O)NC(=O)[C@H](CCCNC(=N)N)NC(=O)[C@H]([C@@H](C)O)NC3=O)C(=O)N[C@@H](C(C)C)C(=O)NCC(=O)NCC(=O)N[C@@H]([C@@H](C)O)C(=O)N2 [KB1(T^4G^7OT^[2-5])]
- EC50 (hOTR): > 10000 nM
- t1/2 SIF [2]: >24 h

SMILES: CC[C@H](C)[C@@H]1NC(=O)[C@H](Cc2ccc(O)cc2)NC(=O)[C@@H]2CSSC[C@@H]3NC(=O)[C@H]([C@@H](C)CC)NC(=O)[C@@H]4CCCN4C(=O)[C@H](Cc4c[nH]c5ccccc45)NC(=O)[C@H](CO)NC(=O)[C@@H]4CSSC[C@H](NC(=O)[C@H]([C@@H](C)O)NC(=O)[C@H](CCC(=O)O)NC(=O)CNC(=O)[C@H](CSSC[C@H](NC(=O)[C@H](CC(N)=O)NC(=O)[C@H]([C@@H](C)O)NC1=O)C(=O)N[C@@H]([C@@H](C)O)C(=O)N4)NC(=O)[C@H](C(C)C)NC(=O)[C@@H]1CCCN1C(=O)[C@H](CC(C)C)NC(=O)CNC(=O)[C@H](CC(N)=O)NC(=O)[C@H](CCCNC(=N)N)NC(=O)[C@H](CCCCN)NC3=O)C(=O)N[C@@H]([C@@H](C)O)C(=O)N[C@@H](CC(C)C)C(=O)NCC(=O)N[C@@H]([C@@H](C)O)C(=O)N2 [KB7(T^4G^7OT^[2-5])]
- EC50 (hOTR): > 10000 nM
- t1/2 SIF [2]: >24 h

SMILES: CC(C)C[C@@H]1NC(=O)CNC(=O)[C@H](CC(N)=O)NC(=O)[C@H](CCCNC(=N)N)NC(=O)[C@H]([C@@H](C)O)NC(=O)[C@@H]2CSSC[C@@H]3NC(=O)[C@H]([C@@H](C)O)NC(=O)CNC(=O)CNC(=O)[C@H](C(C)C)NC(=O)[C@@H]4CSSC[C@H](NC(=O)[C@H]([C@@H](C)O)NC(=O)[C@H](CSSC[C@H](NC(=O)[C@H](C(C)C)NC(=O)[C@@H]5CCCN5C1=O)C(=O)NCC(=O)N[C@@H](CCC(=O)O)C(=O)N[C@@H]([C@@H](C)O)C(=O)N4)NC(=O)CNC(=O)[C@@H]1CCCN1C(=O)[C@H]([C@@H](C)O)NC(=O)[C@H](CC(N)=O)NC3=O)C(=O)N[C@@H](CO)C(=O)N[C@@H](Cc1c[nH]c3ccccc13)C(=O)N1CCC[C@H]1C(=O)N[C@@H](C(C)C)C(=O)N2 [Kalata B1, reference compound]
- t1/2 SGF [4]: >24 h
- t1/2 SIF [2]: >24 h

SMILES: C[C@@H]1NC(=O)[C@@H]2CCCN2C(=O)[C@H](CC(N)=O)NC(=O)[C@@H]2CSSC[C@H](N)C(=O)N[C@H]3CSSC[C@H](NC1=O)C(=O)N[C@@H]([C@@H](C)O)C(=O)NCC(=O)N[C@H](C(=O)N[C@@H](Cc1ccc(O)cc1)C(=O)O)CSSC[C@H](NC(=O)[C@H](Cc1ccc(O)cc1)NC(=O)[C@H](CCC(=O)O)NC3=O)C(=O)N2 [Linaclotide] (HELM PEPTIDE1{C.C.E.Y.C.C.N.P.A.C.T.G.C.Y}$PEPTIDE1,PEPTIDE1,1:R3-6:R3|PEPTIDE1,PEPTIDE1,2:R3-10:R3|PEPTIDE1,PEPTIDE1,5:R3-13:R3$$$V2.0)
- t1/2 SGF [4]: >24 h
- t1/2 SIF ([2]; pig): 0.9 ± 0.05 h
- reported t1/2 in SIF [5]: 0.267 h

SMILES: CC[C@H](C)[C@@H]1NC(=O)[C@H](Cc2ccc(O)cc2)NC(=O)[C@@H](N)CSSC[C@@H](C(=O)N2CCC[C@H]2C(=O)N[C@@H](CC(C)C)C(=O)NCC(N)=O)NC(=O)[C@H](CC(N)=O)NC(=O)[C@H](CCC(N)=O)NC1=O [Oxytocin, reference compound]
- t1/2 SGF [4]: >24 h
- t1/2 SIF ([2]; pig): 0.13 ± 0.017 h

SMILES: CC(C)C[C@H](NC(=O)[C@@H]1CSSC[C@@H]2NC(=O)[C@H](CC(C)C)NC(=O)[C@H](CCC(=O)O)NC(=O)[C@@H](NC(=O)[C@H](CCC(=O)O)NC(=O)[C@H](CC(=O)O)NC(=O)[C@@H](N)CC(N)=O)CSSC[C@H](NC(=O)[C@H](C)NC(=O)[C@H](C(C)C)NC(=O)[C@H](CC(N)=O)NC(=O)[C@H](C(C)C)NC2=O)C(=O)N[C@@H]([C@@H](C)O)C(=O)NCC(=O)N1)C(=O)O [Plecanatide, reference compound]
- t1/2 SGF [4]: >24 h
- t1/2 SIF ([2]; pig): 0.083 ± 0.017 h

SMILES: CC[C@H](C)[C@@H]1NC(=O)[C@@H]2CSSC[C@H](NC(=O)[C@H](CCCNC(=N)N)NC(=O)[C@@H]3CSSC[C@H](NC1=O)C(=O)N[C@@H]([C@@H](C)O)C(=O)N[C@@H](CCCNC(=N)N)C(=O)NCC(=O)N[C@@H](Cc1ccccc1)C(=O)N3)C(=O)N[C@@H](CC(C)C)C(=O)N[C@H]1CSSC[C@H](NC(=O)[C@H](C(C)C)NC(=O)CNC(=O)[C@H](CCCNC(=N)N)NC(=O)[C@H](CCCNC(=N)N)NC1=O)C(=O)N[C@@H](CCCNC(=N)N)C(=O)N2 [RTD-1] (HELM PEPTIDE1{G.F.C.R.C.L.C.R.R.G.V.C.R.C.I.C.T.R}$PEPTIDE1,PEPTIDE1,3:R3-16:R3|PEPTIDE1,PEPTIDE1,5:R3-14:R3|PEPTIDE1,PEPTIDE1,7:R3-12:R3|PEPTIDE1,PEPTIDE1,1:R1-18:R2$$$V2.0)
- t1/2 SGF [4]: 2.2 ± 0.3 h
- t1/2 SIF [2]: 0.05 ± 0.017 h
- half-life (in vitro): < 3 min

SMILES: NC(=O)CC[C@@H]1NC(=O)[C@H](Cc2ccccc2)NC(=O)[C@H](Cc2ccc(O)cc2)NC(=O)[C@@H](N)CSSC[C@@H](C(=O)N2CCC[C@H]2C(=O)N[C@@H](CCCN=C(N)N)C(=O)NCC(N)=O)NC(=O)[C@H](CC(N)=O)NC1=O [Vasopressin, reference compound]
- t1/2 SGF [4]: >24 h
- t1/2 SIF [2]: <0.05 h
